Values joined by “and” are separate entries in the source; they are usually repeats but may differ in a detail not shown here. Identical values can stand only once. “Also recorded” adds a separate entry of the source. Like-named read-outs stand apart in the source and are kept apart here.
Key:
[1] = target: T1, human (α4)2(β2)2α5 nAChRs (Homo sapiens, UniProt P17787+P30532+P43681); experiment: FLEXstation membrane potential assay in HEK cells stably expressing (α4)2(β2)2α5 nAChRs; type: cell-based
T1 construct: expressed in transfected cells
From the text: (§1) Human embryonic kidney (HEK) cell lines stably expressing human (α4)2(β2)2β2/α4 (α4β2*) nAChRs, (α4)2(β2)2α5 nAChRs, (α4)2(β2)2β3 nAChRs, (α3)2(β4)2α3/β4 (α3β4*) nAChRs, (α3)2(β2)2α3/β2 (α3β2*) nAChRs, (α3)2(β4)2α5 nAChRs, or (α3)2(β2)2α5 nAChRs were maintained as described previously ([Wang et al., 2015]; [Kuryatov et al., 2005]; [Caligiuri et al., 2022]). The FLEXstation bench top scanning fluorometer from Molecular Devices was used to assay nAChR function in these cells, according to published protocols ([Wang et al., 2015]; [Kuryatov et al., 2005]). The membrane potential kit (Molecular Devices) was used according to the manufacturer’s protocols. Serial dilutions of SR9883 were manually added to the assay plate 15 min prior to recording. […] Compound dilutions were prepared in V-shaped 96-well plates (Fisher Scientific Co.) and added to cell culture wells at a rate of 20 μL s^−1 during recording. Cells were incubated at 29°C for 6–20 h prior to assays to upregulate nAChRs ([Wang et al., 2015]; [Kuryatov et al., 2005]). Data points were averaged from 3 to 4 responses from separate wells. Potency and efficacy were calculated using the Hill equation as described previously ([Wang et al., 2015]).
(§2) Concentration-response curves of SR9883 actions in nAChR-expressing HEK cells and oocytes were fitted to the Hill equation using a nonlinear least squares curve fit method and efficacy and potency values were calculated as previously described ([Wang et al., 2015]). Plasma and brain levels of SR9983 after oral administration were compared using a two-tailed paired t test. […] For the ICSS threshold experiment, percentages of baseline reward threshold scores were calculated by expressing the absolute threshold scores as a percentage of the scores obtained during baseline. The baseline values were the mean thresholds on the three sessions prior to drug injections. Response latency data were analyzed in the same manner as the threshold data. […] Effects of SR9883 on responding for food pellets in rats was analyzed by a two-tailed paired t test. […] Significant main or interaction effects in ANOVAs were followed by Bonferroni or Newman–Keuls post-hoc tests as appropriate. All statistical analyses were performed using GraphPad Prism software with α set to 0.05.

[2] = tested on: human (α3)2(β4)2α3/β4 (α3β4*) nAChRs; experiment: FLEXstation membrane potential assay in HEK cells stably expressing α3β4* nAChRs; type: cell-based; conditions: SR9883 0.0005–10 μM
From the text: (§3) Human embryonic kidney (HEK) cell lines stably expressing human (α4)2(β2)2β2/α4 (α4β2*) nAChRs, (α4)2(β2)2α5 nAChRs, (α4)2(β2)2β3 nAChRs, (α3)2(β4)2α3/β4 (α3β4*) nAChRs, (α3)2(β2)2α3/β2 (α3β2*) nAChRs, (α3)2(β4)2α5 nAChRs, or (α3)2(β2)2α5 nAChRs were maintained as described previously ([Wang et al., 2015]; [Kuryatov et al., 2005]; [Caligiuri et al., 2022]). The FLEXstation bench top scanning fluorometer from Molecular Devices was used to assay nAChR function in these cells, according to published protocols ([Wang et al., 2015]; [Kuryatov et al., 2005]). The membrane potential kit (Molecular Devices) was used according to the manufacturer’s protocols. Serial dilutions of SR9883 were manually added to the assay plate 15 min prior to recording. […] Potency and efficacy were calculated using the Hill equation as described previously ([Wang et al., 2015]).
(§4) Concentration-response curves of SR9883 actions in nAChR-expressing HEK cells and oocytes were fitted to the Hill equation using a nonlinear least squares curve fit method and efficacy and potency values were calculated as previously described ([Wang et al., 2015]). […] For the ICSS threshold experiment, percentages of baseline reward threshold scores were calculated by expressing the absolute threshold scores as a percentage of the scores obtained during baseline. […] Response latency data were analyzed in the same manner as the threshold data. […]

[3] = target: T2, human (α3)2(β4)2α5 nAChRs (Homo sapiens, UniProt P30532+P30926+P32297); experiment: FLEXstation membrane potential assay in HEK cells stably expressing (α3)2(β4)2α5 nAChRs; type: cell-based; conditions: SR9883 0.0005–10 μM
T2 construct: expressed in transfected cells
From the text: as §3, §4

[4] = tested on: α4β2*, (α4)2(β2)2α5, and (α4)2(β2)2β3 nAChRs; experiment: FLEXstation assay, summary over α4β2* stoichiometries with low-affinity agonist binding sites; type: cell-based, human
From the text: as §3, §4

(α4)2(β2)2α4 nAChRs = target: T3, (α4)2(β2)2α4 nAChRs (Homo sapiens, UniProt P17787+P43681); experiment: nAChR-mediated currents in oocytes expressing (α4)2(β2)2α4 nAChRs (unpublished observations); type: cell-based; conditions: pure stoichiometry
T3 construct: expressed in transfected cells
Description: as §2

[5] = Brain penetration: plasma and brain levels 120 min after oral dosing; type: in vivo, C57BL/6J mice; conditions: C57BL/6J, mouse, 20 mg kg^−1 PO
Description: Mice prepared with intravenous catheters and treated with SR9883 via oral (10 mg kg^−1) or intravenous (1 mg kg^−1) routes of administration. Blood samples were collected up to 240 min after treatment into lithium heparin coated tubes (Ram Scientific) and stored on wet ice. Blood samples were later centrifuged for 3 min at 5,000 RPM to separate plasma from red blood cells. Plasma was collected into a fresh tube and stored at −80°C. A separate group of mice was treated with SR9883 (20 mg kg^−1 PO) and killed by cervical dislocation 120 min later. Their brains were collected and stored at −80°C. SR9883 levels were quantified in plasma and brain by mass spectrometry using an ABSciex 5,500 instrument and using multiple reaction monitoring as previously described ([Radnai et al., 2021]). Brain samples were homogenized in saline and then immediately treated with twice the amount (v:v) of acetonitrile to extract the compound. Plasma samples were directly treated with acetonitrile. Samples were filtered through a 0.2 μm filter plate prior to injection onto the LC–MS/MS as previously described ([Radnai et al., 2021]).

male Wistar rats [6] = experiment: Intravenous nicotine self-administration (FR5TO20); type: in vivo; conditions: for Numbers of nicotine infusions earned vs vehicle: nicotine 0.03 mg kg^−1 per infusion
Description: Operant chambers (Med Associates, East Fairfield, VT, United States) were used to assess responding by rats for food pellets and intravenous nicotine infusions. […] All rats were food-restricted to maintain their body weight at approximately 85% that of free-feeding weights. They were then trained to press an active lever for 45 mg food pellets on a fixed ratio 5 time-out 20 s (FR5TO20) schedule of reinforcement. […] Rats responded for food rewards until a reliable responding was achieved, defined as >90 pellets earned per 60 min session across three consecutive sessions. […] Rats were anesthetized using 1–3% isoflurane inhalation in oxygen and catheters were implanted into the left jugular vein. The catheter was passed subcutaneously to a polyethylene assembly mounted on the animals’ back. […] During the time period, responding on the active lever had no scheduled consequence.
as §2

male Wistar rats [7] = experiment: Operant responding for food pellets (FR5TO20); type: in vivo; conditions: SR9883 10 mg kg^−1 IP, food-restricted rats; p = 0.9868
Description: Operant chambers (Med Associates, East Fairfield, VT, United States) were used to assess responding by rats for food pellets and intravenous nicotine infusions. […] All rats were food-restricted to maintain their body weight at approximately 85% that of free-feeding weights. They were then trained to press an active lever for 45 mg food pellets on a fixed ratio 5 time-out 20 s (FR5TO20) schedule of reinforcement. […] Rats responded for food rewards until a reliable responding was achieved, defined as >90 pellets earned per 60 min session across three consecutive sessions. […] Rats were anesthetized using 1–3% isoflurane inhalation in oxygen and catheters were implanted into the left jugular vein. […]
Concentration-response curves of SR9883 actions in nAChR-expressing HEK cells and oocytes were fitted to the Hill equation using a nonlinear least squares curve fit method and efficacy and potency values were calculated as previously described ([Wang et al., 2015]). […] For the ICSS threshold experiment, percentages of baseline reward threshold scores were calculated by expressing the absolute threshold scores as a percentage of the scores obtained during baseline. […] Response latency data were analyzed in the same manner as the threshold data. […] Effects of SR9883 on responding for food pellets in rats was analyzed by a two-tailed paired t test. […]

[8] = target: human (α4)2(β2)2β2/α4 (α4β2*) nAChRs (Homo sapiens, UniProt P17787+P43681); experiment: FLEXstation membrane potential assay in HEK cells stably expressing α4β2* nAChRs; type: cell-based; design: expressed in transfected cells
From the text: as §1, §2

[9] = SR9883 10 μM, nicotine 0.001–50 μM
[10] = SR9883 0.0005–10 μM on response to EC20-30 nicotine, HEK cells, ±SEM
[11] = SR9883 0.0005–10 μM on response to EC20-30 nicotine, ±SEM
[12] = response to EC20-30 nicotine with SR9883 relative to nicotine alone, ±SEM

T1 sequence (P43681 29-627 limits assumed): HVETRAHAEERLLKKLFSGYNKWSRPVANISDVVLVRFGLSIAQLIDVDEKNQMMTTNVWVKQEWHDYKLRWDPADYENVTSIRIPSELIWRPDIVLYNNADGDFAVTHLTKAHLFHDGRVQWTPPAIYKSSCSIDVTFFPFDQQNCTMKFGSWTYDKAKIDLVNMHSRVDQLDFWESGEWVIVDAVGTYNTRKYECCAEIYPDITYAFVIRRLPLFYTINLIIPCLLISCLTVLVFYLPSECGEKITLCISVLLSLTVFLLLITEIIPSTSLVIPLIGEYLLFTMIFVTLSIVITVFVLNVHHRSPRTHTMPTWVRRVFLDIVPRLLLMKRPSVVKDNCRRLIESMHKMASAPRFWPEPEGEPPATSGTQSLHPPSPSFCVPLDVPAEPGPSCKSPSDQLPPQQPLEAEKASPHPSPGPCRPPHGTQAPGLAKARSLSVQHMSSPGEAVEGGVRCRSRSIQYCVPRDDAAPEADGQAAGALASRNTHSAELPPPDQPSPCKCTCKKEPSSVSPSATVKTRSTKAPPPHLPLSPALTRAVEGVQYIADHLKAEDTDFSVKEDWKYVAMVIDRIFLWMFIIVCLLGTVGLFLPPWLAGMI
T1 sequence (P17787 26-502): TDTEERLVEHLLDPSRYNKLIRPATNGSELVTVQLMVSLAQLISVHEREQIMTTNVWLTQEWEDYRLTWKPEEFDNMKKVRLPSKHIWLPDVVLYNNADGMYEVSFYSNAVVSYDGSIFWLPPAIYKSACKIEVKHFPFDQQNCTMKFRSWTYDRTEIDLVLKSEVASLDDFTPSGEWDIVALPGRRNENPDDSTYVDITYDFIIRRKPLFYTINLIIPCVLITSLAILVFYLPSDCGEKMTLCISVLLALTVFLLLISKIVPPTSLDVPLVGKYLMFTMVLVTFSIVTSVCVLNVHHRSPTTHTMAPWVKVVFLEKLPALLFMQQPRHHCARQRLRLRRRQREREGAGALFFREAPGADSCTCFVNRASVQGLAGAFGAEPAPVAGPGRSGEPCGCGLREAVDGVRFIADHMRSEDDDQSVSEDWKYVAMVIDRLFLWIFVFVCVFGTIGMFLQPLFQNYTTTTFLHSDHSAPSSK
T1 sequence (P30532 23-468): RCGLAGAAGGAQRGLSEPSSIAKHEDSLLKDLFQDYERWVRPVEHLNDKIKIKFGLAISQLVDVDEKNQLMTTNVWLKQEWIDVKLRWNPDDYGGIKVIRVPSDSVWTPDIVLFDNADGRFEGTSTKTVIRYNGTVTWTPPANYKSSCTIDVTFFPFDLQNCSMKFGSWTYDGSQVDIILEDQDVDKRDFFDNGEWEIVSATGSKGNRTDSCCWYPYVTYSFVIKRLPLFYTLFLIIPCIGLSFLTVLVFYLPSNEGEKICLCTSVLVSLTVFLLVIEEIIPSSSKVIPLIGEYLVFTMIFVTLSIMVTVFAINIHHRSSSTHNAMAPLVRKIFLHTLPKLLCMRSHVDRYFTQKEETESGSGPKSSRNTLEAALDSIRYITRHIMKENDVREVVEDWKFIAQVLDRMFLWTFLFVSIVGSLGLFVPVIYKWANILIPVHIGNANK
human (α4)2(β2)2β2/α4 (α4β2*) nAChRs, sequence (P43681 27-627): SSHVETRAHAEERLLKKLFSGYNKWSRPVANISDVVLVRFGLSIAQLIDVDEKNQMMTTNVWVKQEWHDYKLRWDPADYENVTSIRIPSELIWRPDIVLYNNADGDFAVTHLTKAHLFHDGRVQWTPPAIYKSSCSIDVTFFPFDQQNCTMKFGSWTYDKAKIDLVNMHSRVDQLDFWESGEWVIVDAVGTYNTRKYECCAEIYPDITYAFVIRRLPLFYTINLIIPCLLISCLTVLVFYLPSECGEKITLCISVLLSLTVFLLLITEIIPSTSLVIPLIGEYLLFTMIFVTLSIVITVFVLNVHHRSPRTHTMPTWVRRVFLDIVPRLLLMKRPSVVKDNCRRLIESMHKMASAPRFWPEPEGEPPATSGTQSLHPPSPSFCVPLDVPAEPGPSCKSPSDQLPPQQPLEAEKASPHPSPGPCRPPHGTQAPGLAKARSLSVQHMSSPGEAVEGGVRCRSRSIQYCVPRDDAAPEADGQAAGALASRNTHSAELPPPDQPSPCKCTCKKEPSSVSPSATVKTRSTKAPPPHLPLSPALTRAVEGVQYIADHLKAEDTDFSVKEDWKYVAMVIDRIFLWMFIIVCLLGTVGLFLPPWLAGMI
human (α4)2(β2)2β2/α4 (α4β2*) nAChRs, sequence (P17787 26-502): as the sequence (P17787 26-502) above
T2 sequence (P32297 32-505): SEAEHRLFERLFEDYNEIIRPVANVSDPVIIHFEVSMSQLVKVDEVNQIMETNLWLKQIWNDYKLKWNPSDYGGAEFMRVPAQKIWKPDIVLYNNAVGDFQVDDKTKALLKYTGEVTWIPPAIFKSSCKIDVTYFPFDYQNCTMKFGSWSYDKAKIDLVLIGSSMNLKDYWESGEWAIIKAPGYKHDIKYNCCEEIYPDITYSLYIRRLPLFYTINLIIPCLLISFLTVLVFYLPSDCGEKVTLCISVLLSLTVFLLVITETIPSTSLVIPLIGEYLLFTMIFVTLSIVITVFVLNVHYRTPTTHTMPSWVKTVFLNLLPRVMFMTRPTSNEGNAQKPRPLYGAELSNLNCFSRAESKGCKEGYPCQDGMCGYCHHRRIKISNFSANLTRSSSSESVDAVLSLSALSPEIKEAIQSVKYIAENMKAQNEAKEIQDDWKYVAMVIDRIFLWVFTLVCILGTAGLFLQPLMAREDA
T2 sequence (P30926 22-498): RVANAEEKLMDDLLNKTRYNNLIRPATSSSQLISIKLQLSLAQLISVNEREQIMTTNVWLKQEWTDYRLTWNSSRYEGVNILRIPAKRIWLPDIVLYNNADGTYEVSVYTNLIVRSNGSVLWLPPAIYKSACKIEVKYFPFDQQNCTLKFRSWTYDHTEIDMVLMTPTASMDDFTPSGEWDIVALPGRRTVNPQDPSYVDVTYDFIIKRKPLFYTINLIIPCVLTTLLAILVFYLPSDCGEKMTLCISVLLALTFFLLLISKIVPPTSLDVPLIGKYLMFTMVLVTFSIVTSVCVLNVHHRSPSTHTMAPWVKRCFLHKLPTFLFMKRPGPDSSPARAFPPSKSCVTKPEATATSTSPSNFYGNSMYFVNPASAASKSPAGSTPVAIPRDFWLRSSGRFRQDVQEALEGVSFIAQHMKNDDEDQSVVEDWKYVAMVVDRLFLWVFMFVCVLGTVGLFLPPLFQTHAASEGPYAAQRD
T2 sequence (P30532 23-468): as the sequence (P30532 23-468) above
T3 sequence (P43681 29-627 limits assumed): as the sequence (P43681 29-627 limits assumed) above
T3 sequence (P17787 26-502): as the sequence (P17787 26-502) above

In the case of `N#Cc1cccc(-n2nnc(-c3cccnc3)n2)c1` [SR9883, 3-(5-(pyridin-3-yl)-2H-tetrazol-2-yl)benzonitrile], the “Effect on maximum response to nicotine” value [1, 9] is reported as “no effect”, the EC50 [1, 10] is reported as 321 ± 98.2 nM and the nHill [1, 11] is reported as 0.8620 ± 0.1564. For the same compound, the Efficacy [1, 12] was 146.18 ± 10.93%, the “EC50 (enhancement of response to EC20-30 nicotine)” value [2] was “no effect; also recorded: No enhancement” and the “EC50 (enhancement of response to EC20-30 nicotine)” value [3] was “no effect; also recorded: No enhancement”. For the same compound, the “Concentration inducing maximal enhancement of nAChR signaling” value ([4]; EC20-30 nicotine) was ~ 3 μM, the EC50 ([4]; enhancement of the effect of nicotine, read-out: EC50 values, range over stoichiometries) was 200 to 400 nM and the nAChR-mediated currents ((α4)2(β2)2α4 nAChRs) was “enhanced nAChR-mediated currents”. The concentration at 120 min ([5]; brain, read-out: Brain SR9883 level) was ~4.5 µM and ~1100 ng/mL, the concentration at 120 min ([5]; plasma, read-out: Plasma SR9883 level) was ~2600 ng/mL and ~11 µM and the “Numbers of nicotine infusions earned vs vehicle” value (male Wistar rats [6]; SR9883 5 mg kg^−1 IP, p = 0.0021) was “decreased”. The “Numbers of nicotine infusions earned vs vehicle” value (male Wistar rats [6]; SR9883 10 mg kg^−1 IP, p < 0.0001) was “decreased”, the “Responding on the inactive lever” value (male Wistar rats [6]; SR9883 5 and 10 mg kg^−1 IP, p = 0.1274, not significant) was “tended to be decreased” and the “Residual deficits in nicotine responding across daily sessions after treatment” value (male Wistar rats [6]; baseline sessions prior to each SR9883 treatment) was “no residual deficits”. The “Food responding (food pellets earned)” value (male Wistar rats [7]) was “had no effect”, the “Effect on maximum response to nicotine” value [8, 9] was “no effect” and the EC50 [8, 10] was 381 ± 91.6 nM. For the same compound, the nHill [8, 11] was 1.1015 ± 0.2269 and the Efficacy [8, 12] was 108.92 ± 7.65%.

Reference: publication PMC11428108 (Frontiers in Molecular Neuroscience, 2024)
